# System: L. donovani promastigotes
# Experiment: Cultured L. donovani promastigotes exposed to drugs alone or in two-drug combinations
# Type: cell-based
# Settings: typical serum concentrations (e.g. 5 ug/ml); DMEM culture medium; after 144 hours in culture
row,SMILES,reduction of promastigotes compared to control [%]
1,CCC(C)n1ncn(-c2ccc(N3CCN(c4ccc(OCC5COC(Cn6cncn6)(c6ccc(Cl)cc6Cl)O5)cc4)CC3)cc2)c1=O (centres unmarked) [itraconazole],~50
2,Cc1ncc([N+](=O)[O-])n1CCO [metronidazole],~50

# Source: patent US10561650B2, “Method for treating a protozoal infection” (priority 2013, dated 2020)
